Experimental data published in patent US20260274814A1, “THIENYL COMPOUNDS FOR THE TREATMENT OF A CENTRAL NERVOUS SYSTEM DISEASE OR DISORDER” (Coreterra Therapeutics, Inc., priority 2023, published 2026).
Counter-ions that a name gives are not always drawn. Like-named read-outs stand apart in the source and are kept apart here.

Tested on: mice
Assay: Neuropharmacological Assay (SmartCube): automated behavioral signature of compound-treated mice compared with a database of reference drug classes
Assay type: in vivo
Details: for minimal effective dose: Mus musculus, ip, i.p., that dose is shown; for AD / AG / AN / AP / AX / CE / HL / MS / PS / SH / UK: 3.0 mg/kg i.p., 15 min before test
Summary of the method: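 Probabilities reflect how closely the digitally recorded behavioural signature at 3.0 mg/kg i.p. matched each reference class (antipsychotic, anxiolytic, antidepressant etc.). Dosing occurred 15 min before testing. Minimal effective dose was the dose giving 45% or more total activity.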

[1] = dose having 45% or more total activity in SmartCube, if only one dose was tested, read-out: MED (minimal effective dose)
[2] = probability that activity matches this class of agents
[3] = minimal effective dose: dose having 45% or more total activity in SmartCube, if only one dose tested, read-out: MED

CNC1CCc2c(F)sc(C)c2C1 (centres unmarked) [Compound 100, 1-fluoro-N, 3-dimethyl-4,5,6,7-tetrahydro-2-benzothiophen-5-amine hydrochloride]
ND (^ <4%): AD [2] | AG [2] | AN [2] | AX [2] | CE [2] | HL [2] | MS [2] | PS [2] | SH [2] | UK [2]
1 mg/kg: minimal effective dose [1]
++++ (≥74%): AP [2]

CNC1CCc2scc(Br)c2C1 (centres unmarked) [Compound 108, 3-bromo-N-methyl-4,5,6,7-tetrahydrobenzothiophen-5-amine hydrochloride]
ND (^ <4%): AD [2] | AG [2] | AN [2] | AX [2] | CE [2] | HL [2] | MS [2] | PS [2] | SH [2] | UK [2]
++++ (≥74%): AP [2]
< 3 mg/kg: minimal effective dose [1]

CNC1(C)CCc2c(F)csc2C1 (centres unmarked) [Compound 109, 3-fluoro-N, 6-dimethyl-5,7-dihydro-4H-benzothiophen-6-amine hydrochloride]
< 3 mg/kg: minimal effective dose [1]
ND (^ <4%): AG [2] | AN [2] | AP [2] | AX [2] | CE [2] | HL [2] | MS [2] | PS [2] | SH [2] | UK [2]
++++ (≥74%): AD [2]

CNC1COc2cc(F)sc2C1 (centres unmarked) [Compound 130, 2-fluoro-N-methyl-6,7-dihydro-5H-thieno[3,2-b]pyran-6-amine hydrochloride]
< 3 mg/kg: minimal effective dose [1]
ND (^ <4%): AD [2] | AG [2] | AN [2] | AX [2] | CE [2] | HL [2] | MS [2] | PS [2] | SH [2] | UK [2]
++++ (≥74%): AP [2]

CNC1COc2csc(C#N)c2C1 (centres unmarked) [Compound 139, 3-(methylamino)-3,4-dihydro-2H-thieno[3,4-b]pyran-5-carbonitrile hydrochloride]
ND (^ <4%): AG [2] | AN [2] | AP [2] | AX [2] | CE [2] | HL [2] | MS [2] | PS [2] | SH [2]
++ (≥24%): AD [2] | UK [2]
0.3 mg/kg: minimal effective dose [1]

CNC1CCc2scc(C(F)(F)F)c2C1 (centres unmarked) [Compound 140, N-methyl-3-(trifluoromethyl)-4,5,6,7-tetrahydrobenzothiophen-5-amine hydrochloride]
ND (^ <4%): AD (SmartCube class probability) | AG (SmartCube class probability) | AN (SmartCube class probability) | AX (SmartCube class probability) | CE (SmartCube class probability) | HL (SmartCube class probability) | MS (SmartCube class probability) | PS (SmartCube class probability) | SH (SmartCube class probability)
+ (≥4%): AP (SmartCube class probability)
3 mg/kg: minimal effective dose [3]
+++ (≥49%): UK (SmartCube class probability)

CNC1(C)CCc2csc(C(F)(F)F)c2C1 (centres unmarked) [Compound 141, N, 5-dimethyl-3-(trifluoromethyl)-6,7-dihydro-4H-2-benzothiophen-5-amine hydrochloride]
3 mg/kg: minimal effective dose [3]
+++ (≥49%): AX (SmartCube class probability)
+ (≥4%): AD (SmartCube class probability)
ND (^ <4%): AG (SmartCube class probability) | AN (SmartCube class probability) | AP (SmartCube class probability) | CE (SmartCube class probability) | HL (SmartCube class probability) | MS (SmartCube class probability) | PS (SmartCube class probability) | SH (SmartCube class probability) | UK (SmartCube class probability)

CNC1CCc2sc(F)c(C)c2C1 (centres unmarked) [Compound 142, 2-fluoro-N, 3-dimethyl-4,5,6,7-tetrahydrobenzothiophen-5-amine hydrochloride]
+ (≥4%): AD (SmartCube class probability) | AP (SmartCube class probability) | PS (SmartCube class probability) | UK (SmartCube class probability)
1 mg/kg: minimal effective dose [3]
ND (^ <4%): AG (SmartCube class probability) | AX (SmartCube class probability) | CE (SmartCube class probability) | HL (SmartCube class probability) | MS (SmartCube class probability) | SH (SmartCube class probability)
++ (≥24%): AN (SmartCube class probability)

CNC1COc2csc(C(F)(F)F)c2C1 (centres unmarked) [Compound 153, N-methyl-5-(trifluoromethyl)-3,4-dihydro-2H-thieno[3,4-b]pyran-3-amine hydrochloride]
++++ (≥74%): AD (SmartCube class probability)
ND (^ <4%): AG (SmartCube class probability) | AN (SmartCube class probability) | AP (SmartCube class probability) | AX (SmartCube class probability) | CE (SmartCube class probability) | HL (SmartCube class probability) | MS (SmartCube class probability) | PS (SmartCube class probability) | SH (SmartCube class probability) | UK (SmartCube class probability)
3 mg/kg: minimal effective dose [3]

CNC1CC=Cc2cscc2C1 (centres unmarked) [Compound 168, N-methyl-5,6-dihydro-4H-cyclohepta[c]thiophen-5-amine hydrochloride]
3 mg/kg: minimal effective dose [3]
ND (^ <4%): AD (SmartCube class probability) | AG (SmartCube class probability) | AN (SmartCube class probability) | AX (SmartCube class probability) | CE (SmartCube class probability) | HL (SmartCube class probability) | MS (SmartCube class probability) | PS (SmartCube class probability) | SH (SmartCube class probability) | UK (SmartCube class probability)
+++ (≥49%): AP (SmartCube class probability)

CNC1CCc2sc(C(F)(F)F)cc2C1 (centres unmarked) [Compound 173, N-methyl-2-(trifluoromethyl)-4,5,6,7-tetrahydrobenzothiophen-5-amine hydrochloride]
> 3 mg/kg: minimal effective dose [3]
++ (≥24%): UK (SmartCube class probability)
ND (^ <4%): AD (SmartCube class probability) | AG (SmartCube class probability) | AN (SmartCube class probability) | AP (SmartCube class probability) | AX (SmartCube class probability) | CE (SmartCube class probability) | HL (SmartCube class probability) | MS (SmartCube class probability) | PS (SmartCube class probability) | SH (SmartCube class probability)

CNC1CCc2c(C(F)(F)F)csc2C1 (centres unmarked) [Compound 180, N-methyl-3-(trifluoromethyl)-4,5,6,7-tetrahydrobenzothiophen-6-amine hydrochloride]
+++ (≥49%): AP (SmartCube class probability)
ND (^ <4%): AD (SmartCube class probability) | AG (SmartCube class probability) | AN (SmartCube class probability) | AX (SmartCube class probability) | CE (SmartCube class probability) | HL (SmartCube class probability) | MS (SmartCube class probability) | PS (SmartCube class probability) | SH (SmartCube class probability) | UK (SmartCube class probability)
3 mg/kg: minimal effective dose [3]

CNC1COc2cc(C)sc2C1 (centres unmarked) [Compound 181, N, 2-dimethyl-6,7-dihydro-5H-thieno[3,2-b]pyran-6-amine hydrochloride]
+ (≥4%): AN (SmartCube class probability) | AP (SmartCube class probability)
> 3 mg/kg: minimal effective dose [3]
ND (^ <4%): AD (SmartCube class probability) | AG (SmartCube class probability) | AX (SmartCube class probability) | CE (SmartCube class probability) | HL (SmartCube class probability) | MS (SmartCube class probability) | PS (SmartCube class probability) | SH (SmartCube class probability) | UK (SmartCube class probability)

CNC1(C)CCc2scc(F)c2C1 (centres unmarked) [Compound 182, 3-fluoro-N, 5-dimethyl-6,7-dihydro-4H-benzothiophen-5-amine hydrochloride]
ND (^ <4%): AD (SmartCube class probability) | AG (SmartCube class probability) | AN (SmartCube class probability) | AP (SmartCube class probability) | AX (SmartCube class probability) | CE (SmartCube class probability) | HL (SmartCube class probability) | MS (SmartCube class probability)
++ (≥24%): UK (SmartCube class probability)
3 mg/kg: minimal effective dose [3]
+ (≥4%): PS (SmartCube class probability) | SH (SmartCube class probability)

Cc1cc2c(s1)CCC(N)C2 (centres unmarked) [Compound 185, 2-methyl-4,5,6,7-tetrahydrobenzothiophen-5-amine hydrochloride]
ND (^ <4%): AD (SmartCube class probability) | AG (SmartCube class probability) | AN (SmartCube class probability) | AP (SmartCube class probability) | AX (SmartCube class probability) | CE (SmartCube class probability) | HL (SmartCube class probability) | MS (SmartCube class probability) | PS (SmartCube class probability) | SH (SmartCube class probability)
++ (≥24%): UK (SmartCube class probability)

NC1CCc2scc(C(F)(F)F)c2C1 (centres unmarked) [Compound 186, 3-(trifluoromethyl)-4,5,6,7-tetrahydrobenzothiophen-5-amine hydrochloride]
+ (≥4%): UK (SmartCube class probability)
ND (^ <4%): AD (SmartCube class probability) | AG (SmartCube class probability) | AN (SmartCube class probability) | AP (SmartCube class probability) | AX (SmartCube class probability) | CE (SmartCube class probability) | HL (SmartCube class probability) | MS (SmartCube class probability) | PS (SmartCube class probability) | SH (SmartCube class probability)
> 3 mg/kg: minimal effective dose [3]

NC1CCc2scc(Cl)c2C1 (centres unmarked) [Compound 187, 3-chloro-4,5,6,7-tetrahydrobenzothiophen-5-amine hydrochloride]
3 mg/kg: minimal effective dose [3]
ND (^ <4%): AD (SmartCube class probability) | AG (SmartCube class probability) | AN (SmartCube class probability) | AX (SmartCube class probability) | CE (SmartCube class probability) | HL (SmartCube class probability) | MS (SmartCube class probability) | PS (SmartCube class probability) | SH (SmartCube class probability)
++ (≥24%): AP (SmartCube class probability) | UK (SmartCube class probability)
